From article PMC5372246, “Co-production of hydrogen and ethanol from glucose in Escherichia coli by activation of pentose-phosphate pathway through deletion of phosphoglucose isomerase (pgi) and overexpression of glucose-6-phosphate dehydrogenase (zwf) and 6-phosphogluconate dehydrogenase (gnd)” (Biotechnology for Biofuels, 2017) come the findings set out here.

Assay [1] addresses T1, Zwf (ZE), glucose-6-phosphate dehydrogenase (Escherichia coli, UniProt P0AC53).
T1 construct: full-length, C-terminal His-tag, Ni-NTA purified from E. coli, 55 kDa on SDS-PAGE
The assay is described as follows: inhibition of purified enzyme, NADPH formation at […] nm. Type of assay: biochemical.

Assay [2] addresses T2, Gnd (GE), 6-phosphogluconate dehydrogenase (Escherichia coli, UniProt P00350).
T2 construct: full-length, C-terminal His-tag, Ni-NTA purified from E. coli, 51 kDa on SDS-PAGE
T2 sequence (P00350 1-468): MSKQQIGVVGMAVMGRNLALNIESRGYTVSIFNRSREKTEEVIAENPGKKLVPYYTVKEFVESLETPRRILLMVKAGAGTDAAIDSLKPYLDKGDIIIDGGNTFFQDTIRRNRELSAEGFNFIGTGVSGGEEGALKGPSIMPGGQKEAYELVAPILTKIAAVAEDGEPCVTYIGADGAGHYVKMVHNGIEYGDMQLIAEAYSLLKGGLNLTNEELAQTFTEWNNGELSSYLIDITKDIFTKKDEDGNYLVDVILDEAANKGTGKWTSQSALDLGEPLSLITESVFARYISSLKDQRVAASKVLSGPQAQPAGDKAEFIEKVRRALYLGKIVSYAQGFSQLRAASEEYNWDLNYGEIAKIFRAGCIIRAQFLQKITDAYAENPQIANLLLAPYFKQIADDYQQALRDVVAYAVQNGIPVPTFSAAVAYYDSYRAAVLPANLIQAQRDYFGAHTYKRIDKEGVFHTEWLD
The description is as above. It is filed as biochemical.

T1 sequence (P0AC53 whole entry): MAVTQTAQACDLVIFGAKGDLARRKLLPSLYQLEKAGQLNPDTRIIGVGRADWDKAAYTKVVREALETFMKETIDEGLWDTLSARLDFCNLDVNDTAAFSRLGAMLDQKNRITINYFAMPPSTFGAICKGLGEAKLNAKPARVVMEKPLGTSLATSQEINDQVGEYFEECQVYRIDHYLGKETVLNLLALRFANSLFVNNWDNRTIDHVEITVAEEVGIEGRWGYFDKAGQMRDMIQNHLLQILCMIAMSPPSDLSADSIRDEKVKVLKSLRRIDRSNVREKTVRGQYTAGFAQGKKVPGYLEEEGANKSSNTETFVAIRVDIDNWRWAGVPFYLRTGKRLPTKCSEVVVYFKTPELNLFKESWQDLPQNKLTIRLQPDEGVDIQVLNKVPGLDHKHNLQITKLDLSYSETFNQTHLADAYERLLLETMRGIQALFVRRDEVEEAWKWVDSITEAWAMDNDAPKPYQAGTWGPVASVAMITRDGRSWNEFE

As a reminder, the Ki is a measure of affinity in units of concentration, obtained from inhibition or displacement. Read a high Ki as weaker binding. Consider `NC(=O)C1=CN([C@@H]2O[C@H](COP(=O)(O)OP(=O)(O)OC[C@H]3O[C@@H](n4cnc5c(N)ncnc54)[C@H](OP(=O)(O)O)[C@@H]3O)[C@@H](O)[C@H]2O)C=CC1` [NADPH], for which the Ki in assay [1] and in assay [2] was roughly 40 µM throughout.
